Laboratory results taken from patent publication US20230365546A1, “5-SUBSTITUTED INDOLE 3-AMIDE DERIVATIVES, PREPARATION METHOD AND USE THEREOF” (ORIGIANT PHARMACEUTICAL CO., LTD, priority 2020, published 2023).

Tests used:
Assay in all cases: Kinase Profiler 10 μM panel
Flt4(h) = Flt4(h) (Homo sapiens (Human), UniProt P35916)
Method: (§1) In vitro kinase assays were conducted using Kinase Profiler services provided by Eurofins. The experimental method was as follows: the small molecule compound to be tested (0.001-10 μM), the protein kinase to be tested were incubated with a buffer containing substrate, 10 mM magnesium acetate, and [γ-^33P-ATP], the reaction was started by adding Mg\TPmix, after incubation for a period of time at room temperature, a 3% phosphate solution was added to the buffer to stop the reaction. Subsequently, 10 μL of the reaction mixture was quantitatively pipetted onto P30 filter paper, which was washed three times with 75 mM phosphate solution and then once with methanol. The P30 filter paper was air-dried and scintillation fluid was added for scintillation counting.

MRCKβ(h) = MRCKβ(h) (Homo sapiens (Human), UniProt Q9Y5S2)
Method: as §1

Abl(h) = Abl(h) (Homo sapiens (Human), UniProt P00519)
Method: as §1

Ret(V804M)(h) = Ret(V804M)(h) (Homo sapiens (Human), UniProt P07949, V804M)
Method: as §1

HRI(h) = HRI(h) (Homo sapiens (Human), UniProt Q9BQI3)
Method: as §1

PRK2(h) = PRK2(h) (Homo sapiens (Human), UniProt Q16513)
Method: as §1

NEK6(h) = NEK6(h) (Homo sapiens (Human), UniProt Q9HC98)
Method: as §1

Pim-2(h) = Pim-2(h) (Homo sapiens (Human), UniProt Q9P1W9)
Method: as §1

TRB2(h) = TRB2(h) (Homo sapiens (Human), UniProt Q92519)
Method: as §1

eEF-2K(h) = eEF-2K(h) (Homo sapiens (Human), UniProt O00418)
Method: as §1

Pim-1(h) = Pim-1(h) (Homo sapiens (Human), UniProt P11309)
Method: as §1

Rsk1(h) = Rsk1(h) (Homo sapiens (Human), UniProt Q15418)
Method: as §1

AMPKα2(h) = AMPKα2(h) (Homo sapiens (Human), UniProt P54646)
Method: as §1

MKK4(m) = MKK4(m) (Mus musculus (Mouse), UniProt P47809)
Method: as §1

CHK1(h) = CHK1(h) (Homo sapiens (Human), UniProt O14757)
Method: as §1

CDK7/cyclinH/MAT1(h) = CDK7/cyclinH/MAT1(h) (Homo sapiens (Human), UniProt P50613)
Method: as §1

ROCK-II(h) = ROCK-II(h) (Homo sapiens (Human), UniProt O75116)
Method: as §1

MST2(h) = MST2(h) (Homo sapiens (Human), UniProt Q13188)
Method: as §1

EphB4(h) = EphB4(h) (Homo sapiens (Human), UniProt P54760)
Method: as §1

CDK5/p25(h) = CDK5/p25(h) (Homo sapiens (Human), UniProt Q00535)
Method: as §1

WNK3(h) = WNK3(h) (Homo sapiens (Human), UniProt Q9BYP7)
Method: as §1

RIPK2(h) = RIPK2(h) (Homo sapiens (Human), UniProt O43353)
Method: as §1

PAR-1Bα(h) = PAR-1Bα(h) (Homo sapiens (Human), UniProt Q7KZI7)
Method: as §1

Abl(Y253F)(h) = Abl(Y253F)(h) (Homo sapiens (Human), UniProt P00519, Y253F)
Method: as §1

TLK1(h) = TLK1(h) (Homo sapiens (Human), UniProt Q9UKI8)
Method: as §1

Lck(h) activated = Lck(h) activated (Homo sapiens (Human), UniProt P06239)
Method: as §1

Wee1(h) = Wee1(h) (Homo sapiens (Human), UniProt P30291)
Method: as §1

LOK(h) = LOK(h) (Homo sapiens (Human), UniProt O94804)
Method: as §1

BTK(R28H)(h) = BTK(R28H)(h) (Homo sapiens (Human), UniProt Q06187, R28H)
Method: as §1

Fer(h) = Fer(h) (Homo sapiens (Human), UniProt P16591)
Method: as §1

CK1γ2(h) = CK1γ2(h) (Homo sapiens (Human), UniProt P78368)
Method: as §1

MAK(h) = MAK(h) (Homo sapiens (Human), UniProt P20794)
Method: as §1

PKCη(h) = PKCη(h) (Homo sapiens (Human), UniProt P24723)
Method: as §1

ICK(h) = ICK(h) (Homo sapiens (Human), UniProt Q9UPZ9)
Method: as §1

Sequence of TLK1(h) (Q9UKI8 whole entry): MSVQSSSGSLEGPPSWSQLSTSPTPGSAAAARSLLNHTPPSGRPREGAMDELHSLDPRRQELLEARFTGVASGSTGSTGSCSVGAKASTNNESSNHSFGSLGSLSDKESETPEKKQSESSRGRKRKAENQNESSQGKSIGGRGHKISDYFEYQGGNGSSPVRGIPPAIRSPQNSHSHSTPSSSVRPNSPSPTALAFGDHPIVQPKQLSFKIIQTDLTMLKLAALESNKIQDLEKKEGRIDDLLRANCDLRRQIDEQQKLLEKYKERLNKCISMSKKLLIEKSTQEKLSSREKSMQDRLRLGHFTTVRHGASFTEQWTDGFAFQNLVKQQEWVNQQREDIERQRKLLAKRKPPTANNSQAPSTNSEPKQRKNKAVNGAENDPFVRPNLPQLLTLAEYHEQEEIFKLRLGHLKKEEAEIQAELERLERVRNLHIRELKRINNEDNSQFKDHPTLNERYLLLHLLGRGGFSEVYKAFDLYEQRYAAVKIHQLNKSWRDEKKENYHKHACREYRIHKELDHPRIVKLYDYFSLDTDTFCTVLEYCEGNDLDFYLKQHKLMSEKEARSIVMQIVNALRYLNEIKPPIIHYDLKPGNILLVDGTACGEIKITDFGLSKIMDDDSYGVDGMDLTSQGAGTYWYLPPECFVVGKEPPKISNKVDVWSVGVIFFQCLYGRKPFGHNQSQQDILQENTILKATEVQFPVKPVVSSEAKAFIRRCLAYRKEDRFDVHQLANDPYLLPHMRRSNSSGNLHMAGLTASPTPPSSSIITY
Sequence of Flt4(h) (P35916 25-1363): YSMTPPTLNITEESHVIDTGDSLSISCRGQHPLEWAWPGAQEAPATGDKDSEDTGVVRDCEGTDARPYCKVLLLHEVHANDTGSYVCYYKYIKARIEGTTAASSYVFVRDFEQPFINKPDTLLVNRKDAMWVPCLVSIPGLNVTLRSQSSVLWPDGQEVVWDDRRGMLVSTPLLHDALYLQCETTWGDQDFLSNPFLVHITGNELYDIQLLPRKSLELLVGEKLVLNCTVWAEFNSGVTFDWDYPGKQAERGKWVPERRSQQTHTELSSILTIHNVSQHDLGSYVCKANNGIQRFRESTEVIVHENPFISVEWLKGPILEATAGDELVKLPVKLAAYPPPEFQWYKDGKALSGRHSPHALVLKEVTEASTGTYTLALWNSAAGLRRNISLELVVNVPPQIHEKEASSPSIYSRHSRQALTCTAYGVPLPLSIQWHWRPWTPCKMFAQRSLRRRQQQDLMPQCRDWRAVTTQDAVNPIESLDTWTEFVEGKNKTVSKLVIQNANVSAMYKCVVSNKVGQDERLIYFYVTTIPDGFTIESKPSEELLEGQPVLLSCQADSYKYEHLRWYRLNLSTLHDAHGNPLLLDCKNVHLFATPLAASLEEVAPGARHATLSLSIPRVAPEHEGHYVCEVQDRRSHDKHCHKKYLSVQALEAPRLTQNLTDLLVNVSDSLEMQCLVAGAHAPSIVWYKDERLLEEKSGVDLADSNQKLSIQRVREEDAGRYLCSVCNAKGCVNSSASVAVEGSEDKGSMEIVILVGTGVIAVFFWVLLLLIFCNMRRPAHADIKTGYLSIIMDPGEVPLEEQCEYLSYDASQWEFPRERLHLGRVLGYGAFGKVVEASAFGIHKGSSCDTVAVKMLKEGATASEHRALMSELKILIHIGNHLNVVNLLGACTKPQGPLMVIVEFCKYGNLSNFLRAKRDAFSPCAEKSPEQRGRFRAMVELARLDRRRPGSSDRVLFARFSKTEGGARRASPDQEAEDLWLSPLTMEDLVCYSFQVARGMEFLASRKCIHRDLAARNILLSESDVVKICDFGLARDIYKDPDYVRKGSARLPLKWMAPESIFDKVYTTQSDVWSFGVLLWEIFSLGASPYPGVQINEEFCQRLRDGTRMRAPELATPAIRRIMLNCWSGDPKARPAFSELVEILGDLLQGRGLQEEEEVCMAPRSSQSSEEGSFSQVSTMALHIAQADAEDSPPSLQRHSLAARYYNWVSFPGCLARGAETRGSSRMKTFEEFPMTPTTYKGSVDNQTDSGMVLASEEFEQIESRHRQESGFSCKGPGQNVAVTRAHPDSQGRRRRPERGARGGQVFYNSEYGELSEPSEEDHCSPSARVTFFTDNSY
Sequence of Pim-2(h) (Q9P1W9 whole entry): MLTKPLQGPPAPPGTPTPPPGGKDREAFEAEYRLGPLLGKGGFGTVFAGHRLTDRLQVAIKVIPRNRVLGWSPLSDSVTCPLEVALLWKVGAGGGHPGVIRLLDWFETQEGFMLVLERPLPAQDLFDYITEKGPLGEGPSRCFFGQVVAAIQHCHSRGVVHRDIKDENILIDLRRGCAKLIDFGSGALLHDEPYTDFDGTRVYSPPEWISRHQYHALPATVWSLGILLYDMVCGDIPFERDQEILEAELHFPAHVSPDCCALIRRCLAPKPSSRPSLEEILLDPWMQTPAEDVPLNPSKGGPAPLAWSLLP
Sequence of MRCKβ(h) (Q9Y5S2 whole entry): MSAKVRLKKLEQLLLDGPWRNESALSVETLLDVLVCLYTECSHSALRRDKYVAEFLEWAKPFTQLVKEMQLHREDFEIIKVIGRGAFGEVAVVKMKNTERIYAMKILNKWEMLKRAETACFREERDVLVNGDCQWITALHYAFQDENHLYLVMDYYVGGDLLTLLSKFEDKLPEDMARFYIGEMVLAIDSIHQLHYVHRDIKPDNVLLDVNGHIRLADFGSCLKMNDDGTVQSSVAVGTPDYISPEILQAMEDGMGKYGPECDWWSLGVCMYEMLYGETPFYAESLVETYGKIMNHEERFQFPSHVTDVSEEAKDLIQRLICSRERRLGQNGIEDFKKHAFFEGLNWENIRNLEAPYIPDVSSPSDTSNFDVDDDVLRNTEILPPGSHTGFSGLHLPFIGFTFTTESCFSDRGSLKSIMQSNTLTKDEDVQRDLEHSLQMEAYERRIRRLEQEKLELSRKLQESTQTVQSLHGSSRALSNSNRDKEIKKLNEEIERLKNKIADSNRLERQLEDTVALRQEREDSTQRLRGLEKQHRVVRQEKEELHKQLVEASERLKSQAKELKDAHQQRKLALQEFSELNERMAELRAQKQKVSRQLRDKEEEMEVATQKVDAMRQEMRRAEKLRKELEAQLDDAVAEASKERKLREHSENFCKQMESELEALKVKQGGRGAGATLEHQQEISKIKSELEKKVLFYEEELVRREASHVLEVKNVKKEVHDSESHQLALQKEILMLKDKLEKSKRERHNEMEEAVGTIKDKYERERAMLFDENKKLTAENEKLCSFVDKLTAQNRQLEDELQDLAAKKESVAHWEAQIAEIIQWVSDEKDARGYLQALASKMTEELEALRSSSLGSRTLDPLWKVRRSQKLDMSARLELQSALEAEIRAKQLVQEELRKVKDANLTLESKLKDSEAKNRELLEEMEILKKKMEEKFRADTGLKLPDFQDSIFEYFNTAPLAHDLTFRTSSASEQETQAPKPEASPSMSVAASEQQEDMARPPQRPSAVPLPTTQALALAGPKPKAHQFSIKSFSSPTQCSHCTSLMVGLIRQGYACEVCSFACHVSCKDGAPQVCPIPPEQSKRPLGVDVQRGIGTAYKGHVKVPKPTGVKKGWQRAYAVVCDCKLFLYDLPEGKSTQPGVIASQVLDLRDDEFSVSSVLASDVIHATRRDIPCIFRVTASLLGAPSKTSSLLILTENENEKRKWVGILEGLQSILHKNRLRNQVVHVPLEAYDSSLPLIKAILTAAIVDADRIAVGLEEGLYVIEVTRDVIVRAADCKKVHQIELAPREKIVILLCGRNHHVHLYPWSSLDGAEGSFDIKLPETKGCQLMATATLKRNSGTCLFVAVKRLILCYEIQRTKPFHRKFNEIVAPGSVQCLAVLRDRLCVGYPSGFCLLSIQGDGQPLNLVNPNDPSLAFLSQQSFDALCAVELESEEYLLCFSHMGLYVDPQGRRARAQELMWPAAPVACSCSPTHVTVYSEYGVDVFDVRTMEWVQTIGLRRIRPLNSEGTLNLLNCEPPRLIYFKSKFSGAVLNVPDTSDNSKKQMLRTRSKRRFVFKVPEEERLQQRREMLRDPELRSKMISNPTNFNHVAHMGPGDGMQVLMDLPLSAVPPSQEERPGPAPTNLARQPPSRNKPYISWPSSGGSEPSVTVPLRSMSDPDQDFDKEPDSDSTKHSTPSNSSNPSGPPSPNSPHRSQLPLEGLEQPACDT
Sequence of CDK5/p25(h) (Q00535 whole entry): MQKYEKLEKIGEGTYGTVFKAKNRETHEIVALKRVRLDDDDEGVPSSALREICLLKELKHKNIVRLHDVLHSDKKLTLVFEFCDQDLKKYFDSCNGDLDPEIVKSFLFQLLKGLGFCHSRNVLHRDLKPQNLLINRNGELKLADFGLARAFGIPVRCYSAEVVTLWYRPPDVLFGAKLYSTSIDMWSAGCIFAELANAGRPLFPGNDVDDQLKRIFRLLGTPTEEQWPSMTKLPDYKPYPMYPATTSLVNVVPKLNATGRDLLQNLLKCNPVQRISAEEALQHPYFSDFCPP
Sequence of CDK5/p25(h) (Q15078 99-307 partner): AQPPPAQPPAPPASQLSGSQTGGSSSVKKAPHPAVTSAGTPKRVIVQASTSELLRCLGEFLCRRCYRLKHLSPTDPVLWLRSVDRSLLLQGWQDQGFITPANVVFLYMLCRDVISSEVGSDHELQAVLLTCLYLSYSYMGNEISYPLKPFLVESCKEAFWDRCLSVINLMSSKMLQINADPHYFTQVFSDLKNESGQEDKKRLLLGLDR
Sequence of MKK4(m) (P47809 whole entry): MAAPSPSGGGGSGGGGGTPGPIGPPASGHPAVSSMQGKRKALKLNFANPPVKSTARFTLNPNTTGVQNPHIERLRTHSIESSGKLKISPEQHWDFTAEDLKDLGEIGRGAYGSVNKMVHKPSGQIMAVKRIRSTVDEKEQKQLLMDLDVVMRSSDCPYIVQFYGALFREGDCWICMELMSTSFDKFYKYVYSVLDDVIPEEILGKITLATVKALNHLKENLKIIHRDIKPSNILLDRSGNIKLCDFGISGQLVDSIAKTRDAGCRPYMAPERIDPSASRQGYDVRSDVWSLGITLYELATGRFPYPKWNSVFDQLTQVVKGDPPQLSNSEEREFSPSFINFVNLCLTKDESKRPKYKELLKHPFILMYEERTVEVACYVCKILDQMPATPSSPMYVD

In the case of `C[C@H](NC(=O)c1c[nH]c2ccc(-c3ccc4nc(NC(=O)C5CC5)sc4c3)cc12)c1cccc(F)c1` [Compound 34, (S)-5-(2-(cyclopropanecarboxamido)benzo[d]thiazol-6-yl)-N-(1-(3-fluorophenyl)ethyl)-1H-indole-3-carboxamide], the Inhibition ratio (Flt4(h)) is reported as 93%, the Inhibition ratio (MRCKβ(h)) is reported as −5% and the Inhibition ratio (Abl(h)) is reported as 102%. It also gave an Inhibition ratio (Ret(V804M)(h)) of 98%, an Inhibition ratio (HRI(h)) of −3% and an Inhibition ratio (PRK2(h)) of 0%. It also gave an Inhibition ratio (NEK6(h)) of 4%, an Inhibition ratio (Pim-2(h)) of −5% and an Inhibition ratio (TRB2(h)) of 65%. It also gave an Inhibition ratio (eEF-2K(h)) of −41%, an Inhibition ratio (Pim-1(h)) of 3% and an Inhibition ratio (Rsk1(h)) of 37%. For the same compound, the Inhibition ratio (AMPKα2(h)) was 13%, the Inhibition ratio (MKK4(m)) was 9% and the Inhibition ratio (CHK1(h)) was 2%. It also gave an Inhibition ratio (CDK7/cyclinH/MAT1(h)) of 3%, an Inhibition ratio (ROCK-II(h)) of 11% and an Inhibition ratio (MST2(h)) of −9%. For the same compound, the Inhibition ratio (EphB4(h)) was 11%, the Inhibition ratio (CDK5/p25(h)) was 16% and the Inhibition ratio (WNK3(h)) was 18%. The Inhibition ratio (RIPK2(h)) was 67%, the Inhibition ratio (PAR-1Bα(h)) was 2% and the Inhibition ratio (Abl(Y253F)(h)) was 95%. The Inhibition ratio (TLK1(h)) was 19%, the Inhibition ratio (Lck(h) activated) was 76% and the Inhibition ratio (Wee1(h)) was −1%. The Inhibition ratio (LOK(h)) was 85%, the Inhibition ratio (BTK(R28H)(h)) was 1% and the Inhibition ratio (Fer(h)) was 62%. It also gave an Inhibition ratio (CK1γ2(h)) of 9%, an Inhibition ratio (MAK(h)) of 2% and an Inhibition ratio (PKCη(h)) of −3%. It also gave an Inhibition ratio (ICK(h)) of 7%.

With `C[C@H](NC(=O)c1cn(C)c2ccc(-c3ccn4nc(NC(=O)C5CC5)nc4c3)cc12)c1cccc(F)c1` [Compound 94, (S)-5-(2-(cyclopropanecarboxamido)-[1,2,4]triazolo[1,5-a]pyridin-7-yl)-N-(1-(3-fluorophenyl)ethyl)-1-methyl-1H-indole-3-carboxamide] the Inhibition ratio/% (Flt4(h)) was 34%, the Inhibition ratio/% (MRCKβ(h)) was −4% and the Inhibition ratio/% (Abl(h)) was 32%. It also gave an Inhibition ratio/% (Ret(V804M)(h)) of 45%, an Inhibition ratio/% (HRI(h)) of −4% and an Inhibition ratio/% (PRK2(h)) of −4%. For the same compound, the Inhibition ratio/% (NEK6(h)) was 23%, the Inhibition ratio/% (Pim-2(h)) was −14% and the Inhibition ratio/% (TRB2(h)) was −5%. The Inhibition ratio/% (eEF-2K(h)) was 26%, the Inhibition ratio/% (Pim-1(h)) was 9% and the Inhibition ratio/% (Rsk1(h)) was 41%. The Inhibition ratio/% (AMPKα2(h)) was 16%, the Inhibition ratio/% (MKK4(m)) was 27% and the Inhibition ratio/% (CHK1(h)) was −2%. For the same compound, the Inhibition ratio/% (CDK7/cyclinH/MAT1(h)) was 53%, the Inhibition ratio/% (ROCK-II(h)) was 7% and the Inhibition ratio/% (MST2(h)) was −14%. It also gave an Inhibition ratio/% (EphB4(h)) of 56%, an Inhibition ratio/% (CDK5/p25(h)) of 46% and an Inhibition ratio/% (WNK3(h)) of −20%. The Inhibition ratio/% (RIPK2(h)) was −7%, the Inhibition ratio/% (PAR-1Bα(h)) was 33% and the Inhibition ratio/% (Abl(Y253F)(h)) was 23%. The Inhibition ratio/% (TLK1(h)) was 11%, the Inhibition ratio/% (Lck(h) activated) was 46% and the Inhibition ratio/% (Wee1(h)) was 1%. For the same compound, the Inhibition ratio/% (LOK(h)) was 25%, the Inhibition ratio/% (BTK(R28H)(h)) was 77% and the Inhibition ratio/% (Fer(h)) was 10%. It also gave an Inhibition ratio/% (CK1γ2(h)) of 50%, an Inhibition ratio/% (MAK(h)) of 45% and an Inhibition ratio/% (PKCη(h)) of 27%. For the same compound, the Inhibition ratio/% (ICK(h)) was 52%.
